Here are results for two compounds from patent publication EP3733658B1, “PRENYLATED BENZOPYRANES AS PPAR AGONISTS” (Universitat de València, priority 2017, dated 2019).

A short description of data set [1]: Treatment of ob/ob mice: body weight gain and feed efficiency. Particulars: oral, 4 days. From the text:
Protocols conforming to European Union guidelines for the care and protection of animals were approved by the Ethics Committee of the University of Valencia. All efforts were made to minimize the number of animals used and their suffering. ob/ob mice have a leptin deficiency, and are associated with hyperphagia and obesity, as well as hyperglycemia and hyperinsulinemia. This study used male ob/ob mice (C57BU6J) (Charles River laboratories, Chatillon-sur-Chalaronne, France).
The mice were housed in individual cages in a room with controlled temperature, humidity and light. […] The mice were allowed to acclimate for ten days prior to the study.
The control ob/ob mice were just administered with vehicle (physiological saline solution with HEC 1%). […] The compounds were prepared freshly each day in a 1% suspension of HEC for oral administration. Randomization was performed based on the glycaemia values on day 0. For the duration of the experiment the amount of food ingested and the body weight were determined daily for each mouse. Every day between 9:00 and 11:00 a.m. (prior to treatment) blood glucose levels were measured using (Contour next USB Blood glucose meter, BAYER, Basel, Switzerland). On the fifth day of the experiment the mice were anesthesized with isofluorane and blood was extracted by cardiac puncture. The blood was collected in tubes containing EDTA or heparin. Plasma samples were obtained by centrifugation and stored at -80°C. After obtaining the samples, the animals were sacrificed by cervical dislocation and subsequently different organs such as white adipose tissue (WAT) and liver were extracted for additional studies. The organs were weighed and frozen for subsequent RNA analysis and to conduct histological studies
The weight gain at the end of treatment was calculated (d5-d0) (Figure 14A).

The next data set has as its system MCP-1. Nature of the data set: Treatment of ob/ob mice: MCP-1 mRNA in WAT by real-time PCR. The format is in vivo. Particulars: oral, 30 mg/Kg/d, 4 days. Here is the method: 6 animals were used in each group in independent experiments (n=6).
The total RNA was extracted from mouse WAT by homogenization. Reverse transcription was performed with 1000 ng of total RNA using the inverse transcription kit TaqMan (Applied Biosystems, Thermo Fisher Scientific, Waltham, MA) and converted to cDNA by standard methods. The cDNA was amplified with specific feeders for the mouse monocytic chemoattractant protein 1 (MCP-1 or CCL2, Mm00441242_m1) in a Real Time PCR 7900HT apparatus (Applied Biosystems, Thermo Fisher Scientific, Waltham, MA) using Universal Master Mix (Applied Biosystems, Thermo Fisher Scientific, Waltham, MA). All feeders were designed by Applied Biosystems. The relative quantification of the various transcriptions was determined by the 2^-ΔΔCt method using GAPDH (Applied Biosystems, Thermo Fisher Scientific, Waltham, MA) as endogenous and normalized control for the control group.
Background: In qPCR the cycle at which signal appears reflects the starting amount.

In a further data set the test system is ob/ob mice. Nature of the data set: Treatment of ob/ob mice: blood glucose. It counts as in vivo.
The next data set has as its system CXCL16. The data set is described as follows: Flow cytometry of TNFα-induced CXCL16 expression in HUVEC. The format is cell-based, human. Particulars: 3 µM, TNFα 20 ng/mL 24 h. Here is the method:
The cells were collected from the flasks using accutase (StemPro® Accutase® Cell Dissociation Reagent, ThermoFischer Scientific, Waltham, MA).
Then they were washed and incubated for 1 h with a APC-conjugated mAb antibody against human VCAM-1 (100 µg/mL; clone STA, BioLegend, San Diego, CA), a FITC- conjugated mAb against human ICAM-1 (400 µg/mL; clone HA58, BioLegend, San Diego, CA), a PE-conjugated mAb against human CX3CL1 (1.25 µg/mL; clone 51637, R&D Systems, Minneapolis, MN) or with a APC-conjugated mAb antibody against human CXCL16 (clone 256213, R&D Systems, Abingdon, UK), all at a dilution of 1:25 in 3% BSA/PBS. The samples were analyzed using a BD FACSVerse Flow Cytometer (BD Biosciences, San Jose, CA).
(In flow cytometry, cells or beads pass a laser one at a time.)

Data set [2] has as its system human umbilical vein endothelial cells (HUVEC). Nature of the data set: MTT colorimetric cell viability assay, HUVEC. It counts as cell-based. Particulars: 30 µM, 24 h. As to the method: To evaluate potential adverse effects (cytotoxicity) of the compounds of the invention, the compounds 1 and 2 for use according to the present invention, compound 8 of the invention, and the reference compounds were evaluated at concentrations of 30 and 100 µM in human neutrophils (Fig. 1A) and primary cultures of human umbilical vein endothelial cells (HUVEC) (Fig. 1B) using two different techniques: MTT colorimetry assay and flow cytometry analysis for cellular apoptosis and survival. In addition, the synthetic compound 9 of the invention was evaluated at 10, 30 and 100 µM (Fig. 2).
MTT assay. The viability of neutrophils and HUVEC was determined by the MTT colorimetric assay MTT (3(4,5-dimethylthiazol-2-yl)-2,5-diphenyltetrazoyl bromide).
Human umbilical vein endothelial cells (HUVEC) were isolated with the collagenase treatment and maintained in a human specific endothelial base medium (EBM-2) supplemented with endothelial growth medium (EGM-2) and 10% FCS. Cells of the first passage were cultured until their confluence in 24-well plates. Before starting each experiment, the cells were incubated for 24 h in a medium containing 1% FBS.
100 µL of neutrophils and HUVEC (2 × 10^5 cells/mL) suspension in supplemented RPMI medium were added to each well of a 96-well plate. The cells were incubated in absence and/or presence of the compounds at 37°C for24h. An MTT solution was prepared (2 mg/mL in PBS). 100 µL of the MTT solution were added to each well and incubated at 37°C for an additional 3 h. The supernatants were discarded and 200 µL of DMSO were added to each well to dissolve the precipitated formazan. The optical densities at two wavelengths (560 and 630 nm) were measured in a spectrophotometer (Infinite M200, Tecan, Mannedorf, Switzerland).

For data set [3], the system named is mononuclear cell adhesion induced by TNFα. The data set is described as follows: Mononuclear cell adhesion to TNFα-stimulated HUVEC transfected with control or RXRα, PPARα, PPARγ specific siRNA. The format is cell-based, human. Particulars: 20 h.

Regarding `CCOC(=O)CCC(C)=CCCC1(C)CCc2cc(OCc3ccc(F)cc3)ccc2O1` (stereo not shown) [Compound 9], the “Weight gain (d5-d0)” value in data set [1] (30 mg/Kg/d) was found to be 1.88 ± 0.52 g. The “Feed efficiency (ratio of weight gain and food consumed)” value in data set [1] is on record as “no observable differences”. Moreover, in data set [1] (doses of 10 and 30 mg/Kg/d), the “weight gain compared to the control group” value was “did not cause significant differences”. Moreover, in the data set with MCP-1, the “expression of MCP-1 in WAT” value is “significantly reduced”. The “glucose blood level, day 0 (before treatment)” value in the data set with ob/ob mice (group given 30 mg/Kg/d) was 261 mg/dL. For the same compound, in the data set with ob/ob mice (oral, 30 mg/Kg/d), the “glucose blood level after 4 days” value worked out at 194 mg/dL. In the data set on ob/ob mice (oral, 30 mg/Kg/d, after 4 days), the “decrease in glucose blood levels compared to day 0” value is given as 20%. Moreover, in the data set with CXCL16, the “expression of CXCL16 induced by TNFα” value is “significant decrease”. The “cytotoxicity (MTT), with respect to the vehicle” value in data set [2] is 12%.

In the case of `C/C(=C\CCC1(C)CCc2cc(O)cc(C)c2O1)CC/C=C(\C)C(=O)O` (stereo not shown) [Polycerasoidol, 1, polycerasoidol], in data set [3] (PPARα siRNA HUVEC, polycerasoidol 10 µM, rosiglitazone 1 µM), the “inhibitory response on mononuclear cell adhesion after PPARα silencing” value is listed as “not affected”. Further, the “inhibitory response on mononuclear cell adhesion in HUVEC deficient in PPARγ” value in data set [3] (PPARγ siRNA HUVEC, 10 µM) is reported as “annulled”. Moreover, the “inhibitory effect on mononuclear cell adhesion after RXRα silencing” value in data set [3] (RXRα specific siRNA HUVEC, 10 µM) is recorded as “completely suppressed”. Moreover, the “TNFα-induced adhesion of mononuclear cells” value in data set [3] (control siRNA transfected HUVEC, polycerasoidol 10 µM, rosiglitazone 1 µM) was “inhibited”.
